Consider 2 compounds from PMC5856786, “A DHODH inhibitor increases p53 synthesis and enhances tumor cell killing by p53 degradation blockage” (Nature Communications, 2018).

One assay addresses T1, human mdm2 (hdm2) (Homo sapiens, UniProt Q00987).
T1 construct: ARN8 soluble cell extracts were prepared for the cellular thermal shift assay (CETSA); endogenous in cells; host or cells: ARN8 human melanoma cells (soluble extract)
Kind of assay: hdm2 binding (CETSA in ARN8 extracts; ELISA with IP3 peptide). The following applies: CETSA at 100 μM. The procedure:
(§1) Levels of gapdh were used to monitor protein loading. e ARN8 or HNDF cells were treated with the indicated compound concentrations for 72 h and subjected to MTT assays. […] Incorporation of ^35S in the p53 immunoprecipitate was determined by autoradiography. The experiment is shown in duplicate
(§2) corresponds to residues 17−26 of wild-type p53) was determined by ELISA (See
(§3) supplementary information9). The percentage hdm2/hdmx bound to IP3 relative to the vehicle
(§4) upon which cycloheximide (CHX) (10 µg mL-1) was added for the indicated periods of time. […]
Background: An ELISA detects its analyte on a solid surface through an enzyme-linked reagent.

The target of a further assay is CDK2/CycA2 (Homo sapiens, UniProt P24941). Kind of assay: biochemical. More on the design: radiometric 33PanQinase protein kinase activity assay, CDK/cyclin panel, per cent remaining activity. The following applies: read-out: HZ00 10 µM Average (% remaining activity). From the text: (§5) Supplementary Table 1. In vitro inhibition (% remaining activity) of cyclin-dependent
(§6) ProQinase GmbH (Freiburg, Germany) using a radiometric protein kinase assay
(§7) (33PanQinase® Activity Assay).
(§8) (1 picture or pasted object on this page, not shown here) 32 Supplementary Table 1. In vitro inhibition (% remaining activity) of cyclin-dependent kinases (CDKs).

For a further assay, the target named is CDK6/CycD1 (Homo sapiens, UniProt Q00534). As to the kind of experiment: biochemical. The following applies: read-out: HZ00 10 µM Average (% remaining activity). Also on record: radiometric 33PanQinase protein kinase activity assay, CDK/cyclin panel, per cent remaining activity.
Text: as §5, §6, §7, §8

A further assay addresses CDK8/CycC (Homo sapiens, UniProt P49336). Kind of assay: biochemical. More on the design: radiometric 33PanQinase protein kinase activity assay, CDK/cyclin panel, per cent remaining activity. The following applies: read-out: HZ00 10 µM Average (% remaining activity).
Text: as §5, §6, §7, §8

A further assay addresses T2, CDK5/p25NCK (Homo sapiens, UniProt Q00535).
T2 construct: p25
As to the kind of experiment: biochemical. More on the design: radiometric 33PanQinase protein kinase activity assay, CDK/cyclin panel, per cent remaining activity. The following applies: read-out: HZ00 10 µM Average (% remaining activity).
Text: as §5, §6, §7, §8

The next assay addresses CDK9/CycK (Homo sapiens, UniProt P50750). As to the kind of experiment: biochemical. More on the design: radiometric 33PanQinase protein kinase activity assay, CDK/cyclin panel, per cent remaining activity. The following applies: read-out: HZ00 10 µM Average (% remaining activity).
Text: as §5, §6, §7, §8

Another assay concerns the target T3, CDK5/p35NCK (Homo sapiens, UniProt Q00535).
T3 construct: p35
Kind of assay: biochemical. Also on record: radiometric 33PanQinase protein kinase activity assay, CDK/cyclin panel, per cent remaining activity. The following applies: read-out: HZ00 10 µM Average (% remaining activity).
Text: as §5, §6, §7, §8

Another assay deals with CDK4/CycD3 (Homo sapiens, UniProt P11802). Kind of assay: biochemical. More on the design: radiometric 33PanQinase protein kinase activity assay, CDK/cyclin panel, per cent remaining activity. The following applies: read-out: HZ00 10 µM Average (% remaining activity).
Text: as §5, §6, §7, §8

The target in another assay is CDK1/CycB1 (Homo sapiens, UniProt P06493). As to the kind of experiment: biochemical. The following applies: read-out: HZ00 10 µM Average (% remaining activity). More on the design: radiometric 33PanQinase protein kinase activity assay, CDK/cyclin panel, per cent remaining activity.
Text: as §5, §6, §7, §8

The next assay has as its system nucleoli in HCT116 cells. As to the kind of experiment: Immunofluorescence of nucleolin and p53. The format is cell-based. The following applies: Supplementary Fig. 4a. As to the method:
(§9) Protein extracts were prepared in 1× LDS sample buffer (Invitrogen) with 100 mM DTT and separated and transferred using the Invitrogen western blotting system except in Supplementary Fig. 1c where the BioRad western blotting system was used. HRP-conjugated secondary antibodies were obtained from Dako (#P016102 and #P0211702) or Santa Cruz (#SC-2020). Immunofluorescence was performed by fixing cells in 4% paraformaldehyde freshly made in PBS for 10 min at 37 °C. Following fixation, cells were permeabilized in 0.15% Triton X-100 for 1–2 min at 37 °C followed by staining with the indicated antibodies. Images were taken using Olympus IX-71 microscope controlled by DeltaVision SoftWoRx. Image stacks were deconvolved, quick-projected and saved as tiff images to be processed using Adobe Photoshop. Antibodies to specific antigens are listed in Supplementary Table 8. All original films for blots in Fig. 1 are shown in Supplementary Figs. 9–12.
Cells were fixed in 4 % paraformaldehyde made in PBS followed by 10 min at 37 °C, permeabilization in 0.15 % Triton X-100 for 1-2 min at 37 °C, and staining with antibodies against nucleolin and p53. Images were taken using Olympus IX-71 microscope controlled by Delta Vision SoftWorx. Image stacks were deconvolved, quick-projected and saved as tiff images to be processed using Adobe PhotoShop. […]
was extracted and quantified. […]

The test system of assay [1] is p53 and p53-induced proteins in ARN8 cells. Kind of assay: Western blotting of p53, hdm2 and p21 levels. The format is cell-based, human. The following applies: ARN8 melanoma cells. The procedure: Levels of p53, as well as downstream targets hdm2 (human mdm2) and p21 were determined. Levels of gapdh were used to monitor protein loading. e ARN8 or HNDF cells were treated with the indicated compound concentrations for 72 h and subjected to MTT assays. […] Incorporation of ^35S in the p53 immunoprecipitate was determined by autoradiography. The experiment is shown in duplicate
as §9
Background: A western blot detects proteins with antibodies after separation by electrophoresis.

For a further assay, the system named is protein kinases. Kind of assay: Radioactive filter-binding assays, panel of 140 kinases (Supplementary Table 2). Format: biochemical. The procedure: Supplementary Table 2. In vitro inhibition (% remaining activity) of protein
free assays. Screening was performed by the International Centre for Kinase Profiling
(Dundee, UK) using radioactive ( P-ATP) filter-binding assays.
(1 picture or pasted object on this page, not shown here)

The next assay has as its target T4, human mdmx (hdmx) (Homo sapiens, UniProt O15151).
T4 construct: ARN8 soluble cell extracts were prepared for the cellular thermal shift assay (CETSA); endogenous in cells; host or cells: ARN8 human melanoma cells (soluble extract)
As to the kind of experiment: hdmx binding (CETSA in ARN8 extracts; ELISA with IP3 peptide). The following applies: CETSA at 100 μM. The procedure:
as §1, §2, §3, §4

Assay [2] deals with p53-dependent transcription in ARN8 human melanoma cells. As to the kind of experiment: p53-dependent transcription reporter (CPRG assay) in ARN8 cells. The following applies: cultured cells; authors' response in peer review file. Format: cell-based. The procedure: A 20,000 compound library was purchased from ChemBridge consisting of 10,000 from the DIVERSet and 10,000 from the CombiSet libraries. […] A total of 30,000 additional compounds from the ChemBridge DIVERSet that were previously screened in a T22 cell background[12] were re-screened in ARN8 cells at 5 µM. The ChemBridge codes for these compounds can be made available upon request. All chemical synthesis is detailed in Supplementary Information with NMR spectra and reaction schemes detailed in Supplementary Figs. 13–19.

In another assay the test system is MV411 cells. Kind of assay: PI flow cytometry, sub-G1 cells, MV411. The format is cell-based. As to the method:
Cell cycle distribution analysis was performed on a Becton Dickinson FACScan flow cytometer or FACSCalibur (BD Biosciences) following staining with propidium iodide (PI) or dual labeling with BrdU and PI[36]. These assays were analyzed using CellQuest Pro (BD Biosciences).
In general terms: A flow cytometer gives signals particle by particle.

One may read the remaining activity as the signal under treatment as a percentage of the control signal.

Chain of CDK8/CycC (P49336 whole entry): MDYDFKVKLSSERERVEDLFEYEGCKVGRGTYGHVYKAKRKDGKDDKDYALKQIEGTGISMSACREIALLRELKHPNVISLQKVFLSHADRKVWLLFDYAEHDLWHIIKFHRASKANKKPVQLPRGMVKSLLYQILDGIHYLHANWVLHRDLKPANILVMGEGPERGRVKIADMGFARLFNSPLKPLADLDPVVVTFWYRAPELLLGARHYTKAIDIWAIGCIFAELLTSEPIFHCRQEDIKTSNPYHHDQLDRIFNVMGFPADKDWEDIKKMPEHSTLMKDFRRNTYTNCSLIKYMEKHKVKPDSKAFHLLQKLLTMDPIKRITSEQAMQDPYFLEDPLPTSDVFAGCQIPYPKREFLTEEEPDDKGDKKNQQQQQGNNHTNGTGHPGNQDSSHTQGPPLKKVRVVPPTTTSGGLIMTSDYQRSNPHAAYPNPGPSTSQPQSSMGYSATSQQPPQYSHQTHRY
Chain of CDK8/CycC (P24863 whole entry partner): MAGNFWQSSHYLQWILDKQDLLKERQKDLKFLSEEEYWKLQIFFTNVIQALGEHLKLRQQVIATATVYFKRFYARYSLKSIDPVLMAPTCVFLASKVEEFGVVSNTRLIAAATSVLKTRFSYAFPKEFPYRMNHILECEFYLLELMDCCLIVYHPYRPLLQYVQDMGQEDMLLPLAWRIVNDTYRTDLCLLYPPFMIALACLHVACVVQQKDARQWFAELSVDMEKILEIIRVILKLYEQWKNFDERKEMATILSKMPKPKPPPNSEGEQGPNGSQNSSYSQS
Chain of CDK9/CycK (P50750 whole entry): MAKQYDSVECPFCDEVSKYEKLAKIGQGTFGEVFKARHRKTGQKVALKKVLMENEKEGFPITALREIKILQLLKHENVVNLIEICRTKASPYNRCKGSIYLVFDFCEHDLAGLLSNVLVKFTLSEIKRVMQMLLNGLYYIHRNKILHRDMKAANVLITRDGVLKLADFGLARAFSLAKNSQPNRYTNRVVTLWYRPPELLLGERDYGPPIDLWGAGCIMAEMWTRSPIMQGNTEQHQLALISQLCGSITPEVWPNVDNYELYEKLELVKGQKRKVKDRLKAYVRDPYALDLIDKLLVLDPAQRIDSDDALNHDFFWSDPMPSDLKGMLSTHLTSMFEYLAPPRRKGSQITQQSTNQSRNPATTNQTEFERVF
Chain of CDK9/CycK (O75909 whole entry partner): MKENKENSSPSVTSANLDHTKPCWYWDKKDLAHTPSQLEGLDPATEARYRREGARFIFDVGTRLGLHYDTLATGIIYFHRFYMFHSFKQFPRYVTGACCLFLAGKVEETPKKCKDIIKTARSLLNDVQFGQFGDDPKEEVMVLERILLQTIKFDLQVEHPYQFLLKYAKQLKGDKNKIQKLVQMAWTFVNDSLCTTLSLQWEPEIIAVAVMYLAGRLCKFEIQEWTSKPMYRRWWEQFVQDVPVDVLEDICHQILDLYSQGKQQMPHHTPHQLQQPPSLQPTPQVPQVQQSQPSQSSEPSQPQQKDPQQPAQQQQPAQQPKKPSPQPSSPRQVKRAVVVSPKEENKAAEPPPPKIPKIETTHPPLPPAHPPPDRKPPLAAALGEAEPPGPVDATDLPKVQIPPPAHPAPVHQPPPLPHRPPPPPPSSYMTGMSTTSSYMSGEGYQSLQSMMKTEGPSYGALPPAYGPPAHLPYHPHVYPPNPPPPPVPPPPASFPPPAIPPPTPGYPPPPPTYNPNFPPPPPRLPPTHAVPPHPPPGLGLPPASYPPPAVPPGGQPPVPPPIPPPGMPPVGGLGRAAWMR
T3 sequence (Q00535 whole entry): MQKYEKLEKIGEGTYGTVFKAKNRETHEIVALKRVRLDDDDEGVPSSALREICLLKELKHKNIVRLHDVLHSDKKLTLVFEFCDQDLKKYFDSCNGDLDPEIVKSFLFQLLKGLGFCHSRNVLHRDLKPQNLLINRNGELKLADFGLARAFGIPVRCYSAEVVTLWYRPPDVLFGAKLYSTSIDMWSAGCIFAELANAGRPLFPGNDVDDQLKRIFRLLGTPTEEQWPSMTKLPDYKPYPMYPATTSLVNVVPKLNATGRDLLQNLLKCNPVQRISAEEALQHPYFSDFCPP
T3 sequence (Q15078 whole entry partner): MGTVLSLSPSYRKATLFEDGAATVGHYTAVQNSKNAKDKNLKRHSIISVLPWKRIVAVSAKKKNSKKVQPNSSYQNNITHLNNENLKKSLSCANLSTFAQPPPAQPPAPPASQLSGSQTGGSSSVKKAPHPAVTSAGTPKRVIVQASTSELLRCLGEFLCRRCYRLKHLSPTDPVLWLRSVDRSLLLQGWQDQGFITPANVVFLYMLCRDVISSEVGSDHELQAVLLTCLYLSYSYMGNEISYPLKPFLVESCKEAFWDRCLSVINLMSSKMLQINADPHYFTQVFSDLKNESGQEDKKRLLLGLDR
T2 sequence (Q00535 whole entry): as the sequence (Q00535 whole entry) above
T2 sequence (Q15078 whole entry partner): as the sequence (Q15078 whole entry partner) above
Chain of CDK6/CycD1 (Q00534 whole entry): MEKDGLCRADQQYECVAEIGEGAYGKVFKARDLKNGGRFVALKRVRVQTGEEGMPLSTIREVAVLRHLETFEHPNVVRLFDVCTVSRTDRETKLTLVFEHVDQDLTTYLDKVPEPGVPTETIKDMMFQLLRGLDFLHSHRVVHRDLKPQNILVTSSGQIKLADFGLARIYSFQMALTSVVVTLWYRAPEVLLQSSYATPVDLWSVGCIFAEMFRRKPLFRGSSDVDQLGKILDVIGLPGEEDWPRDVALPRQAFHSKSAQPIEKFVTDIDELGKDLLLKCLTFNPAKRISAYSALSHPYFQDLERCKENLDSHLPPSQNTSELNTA
Chain of CDK6/CycD1 (P24385 whole entry partner): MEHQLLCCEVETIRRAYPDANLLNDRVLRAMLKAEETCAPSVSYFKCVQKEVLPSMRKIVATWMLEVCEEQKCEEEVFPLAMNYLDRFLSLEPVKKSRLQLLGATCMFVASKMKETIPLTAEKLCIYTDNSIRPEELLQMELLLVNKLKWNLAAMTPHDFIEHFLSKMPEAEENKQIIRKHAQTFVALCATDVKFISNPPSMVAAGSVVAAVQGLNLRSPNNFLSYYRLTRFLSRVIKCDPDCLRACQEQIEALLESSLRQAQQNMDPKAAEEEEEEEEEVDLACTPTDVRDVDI
Chain of CDK4/CycD3 (P11802 whole entry): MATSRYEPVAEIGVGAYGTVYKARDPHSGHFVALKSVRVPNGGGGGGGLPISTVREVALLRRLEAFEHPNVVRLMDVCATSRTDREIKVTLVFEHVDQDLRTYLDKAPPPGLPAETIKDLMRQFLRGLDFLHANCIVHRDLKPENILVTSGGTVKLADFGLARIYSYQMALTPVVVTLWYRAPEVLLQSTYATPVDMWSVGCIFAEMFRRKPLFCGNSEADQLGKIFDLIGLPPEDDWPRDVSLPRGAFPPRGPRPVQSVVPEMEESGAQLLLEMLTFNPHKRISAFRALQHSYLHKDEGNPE
Chain of CDK4/CycD3 (P30281 whole entry partner): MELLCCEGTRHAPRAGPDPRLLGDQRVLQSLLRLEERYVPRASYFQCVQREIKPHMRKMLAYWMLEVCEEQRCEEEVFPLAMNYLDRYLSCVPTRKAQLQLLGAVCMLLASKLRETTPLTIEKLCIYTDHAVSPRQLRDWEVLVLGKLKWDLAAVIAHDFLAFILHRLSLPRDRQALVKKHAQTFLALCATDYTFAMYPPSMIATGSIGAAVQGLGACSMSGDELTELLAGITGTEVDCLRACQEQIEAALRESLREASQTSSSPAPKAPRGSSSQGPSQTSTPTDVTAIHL
Chain of CDK1/CycB1 (P06493 whole entry): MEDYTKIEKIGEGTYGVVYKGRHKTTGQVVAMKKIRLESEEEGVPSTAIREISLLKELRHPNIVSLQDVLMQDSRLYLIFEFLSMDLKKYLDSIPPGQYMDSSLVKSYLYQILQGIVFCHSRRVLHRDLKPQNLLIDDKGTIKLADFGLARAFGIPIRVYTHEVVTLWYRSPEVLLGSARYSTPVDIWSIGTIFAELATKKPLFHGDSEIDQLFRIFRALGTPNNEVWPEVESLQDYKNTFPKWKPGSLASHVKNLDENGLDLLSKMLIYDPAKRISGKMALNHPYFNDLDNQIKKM
Chain of CDK1/CycB1 (P14635 whole entry partner): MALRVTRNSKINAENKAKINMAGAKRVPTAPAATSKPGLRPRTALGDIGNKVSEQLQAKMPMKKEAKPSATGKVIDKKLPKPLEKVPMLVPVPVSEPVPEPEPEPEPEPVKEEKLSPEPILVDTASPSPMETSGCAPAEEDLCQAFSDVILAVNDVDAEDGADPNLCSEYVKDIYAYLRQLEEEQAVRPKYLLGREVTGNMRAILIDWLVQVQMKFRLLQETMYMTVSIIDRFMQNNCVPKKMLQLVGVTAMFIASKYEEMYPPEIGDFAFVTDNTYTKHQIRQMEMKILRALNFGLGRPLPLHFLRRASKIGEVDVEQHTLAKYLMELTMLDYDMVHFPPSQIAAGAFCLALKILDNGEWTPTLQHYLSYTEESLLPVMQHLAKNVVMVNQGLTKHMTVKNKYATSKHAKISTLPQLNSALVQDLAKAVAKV

`O=C(NC1CCCc2c1cnn2-c1ccccc1F)c1ccccn1` (stereo not drawn) [HZ00]: on human mdm2 (hdm2), the “binding to human mdm2 (hdm2)” value is “does not bind”. Moreover, the remaining activity at 10 µM on CDK2/CycA2 is 96%; on CDK6/CycD1, 103%; at CDK8/CycC it was 95.2%; at CDK5/p25NCK, 104%; on CDK9/CycK, 100%; on CDK5/p35NCK, 105%. Moreover, the remaining activity at 10 µM on CDK4/CycD3 is 89.2%; on CDK1/CycB1, 104%. In addition, in the assay on nucleoli in HCT116 cells, the effect on nucleoli entry was “nucleoli were disrupted”. In addition, in [1], the “levels of p53 and p53-induced proteins” value was “increased the levels of p53 and p53-induced proteins”. Besides, the “inhibition of protein kinases” value in the assay with protein kinases is given as “did not detect inhibition”. Also, the “binding to human mdmx (hdmx)” value on human mdmx (hdmx) is listed as “not detected”.

Regarding `O=C(NC1CCCc2c1cnn2-c1ccccc1F)c1onc2c1CCCC2` (stereo not drawn) [HZ05], the “concentration activating p53-dependent transcription” value in assay [2] is “below 40 nM”. In addition, the sub-G1 cells with MV411 cells (HZ05 1 μM 72 h + 48 h, 2 μM nutlin-3a last 48 h) is given as 65.4%; in the assay with MV411 cells (HZ05 1 μM 72 h + 48 h, DMSO last 48 h), 30.2%; in the assay on MV411 cells (HZ05 1 μM, 72 h treatment), 5.5%; in the assay on MV411 cells (HZ05 2.5 μM, 72 h treatment), 6.2%.
